# From patent US10294202B2, “Pyrrolidinones as herbicides” (FMC Corporation, priority 2013, dated 2019)
# Assays:
# Experiment in all cases: Test E preemergence herbicide test
# Set-up in all cases: key: 0 = no effect, 100 = complete control
# ragweed = assay type: in vivo, Ambrosia elatior
# Source text: (§1) Seeds of plant species selected from corn (Zea mays), soybean (Glycine max), velvetleaf (Abutilon theophrasti), lambsquarters (Chenopodium album), wild poinsettia (Euphorbia heterophylla), pigweed, palmer (palmer pigweed, Amaranthus palmeri), waterhemp (common waterhemp, Amaranthus rudis), surinam grass (Brachiaria decumbens), crabgrass, large (large crabgrass, Digitaria sanguinalis), crabgrass, Brazil (Brazilian crabgrass, Digitaria horizontalis), panicum, fall (fall panicum, Panicum dichotomiflorum), foxtail, giant (giant foxtail, Setaria faberii), foxtail, green (green foxtail, Setaria viridis), goosegrass (Eleusine indica), johnsongrass (Sorghum halepense), ragweed (common ragweed, Ambrosia elatior), barnyardgrass (Echinochloa crus-galli), sandbur (southern sandbur, Cenchrus echinatus), arrowleaf […] rhombifolia), ryegrass, Italian (Italian ryegrass, Lolium multiflorum), dayflower, VA (Virginia dayflower, Commelina virginica), field bindweed (Convolvulus arvensis), morningglory (Ipomoea coccinea), nightshade (eastern black nightshade, Solanum ptycanthum), kochia (Kochia scoparia), nutsedge, yellow (yellow nutsedge, Cyperus esculentus), cocklebur (common cocklebur, Xanthium strumarium), smartweed (ladysthumb smartweed, Polygonum Persicaria) and beggarticks (hairy beggarticks, Bidens pilosa), were planted into a silt loam soil and treated preemergence with test chemicals formulated in a non-phytotoxic solvent mixture which included a surfactant. Treated plants and controls were maintained in a greenhouse for 21 days, after which time all species were compared to controls and visually evaluated. Plant response ratings, summarized in Table E, are based on a scale of 0 to 100 where 0 is no effect and 100 is complete control. A dash (-) response means no test result.
# wild poinsettia = assay type: in vivo, Euphorbia heterophylla
# Source text: as §1
# arrowleaf sida = assay type: in vivo, Sida rhombifolia
# Source text: as §1
# crabgrass, Brazil = assay type: in vivo, Digitaria horizontalis
# Source text: as §1
smiles,measurement,setting,value
O=C1NCC(c2cccc(Br)c2)C1C(=O)Nc1ccccc1F (centres unmarked) [Compound 66],"Plant response rating, Ragweed",ragweed; 16 g ai/ha,0
same,"Plant response rating, Ragweed",ragweed; 31 g ai/ha,0
same,"Plant response rating, Ragweed",ragweed; 62 g ai/ha,0
same,"Plant response rating, Ragweed",ragweed; 125 g ai/ha,0
same,"Plant response rating, Ragweed",ragweed; 250 g ai/ha,20
same,"Plant response rating, Poinsettia, Wild",wild poinsettia; 16 g ai/ha,0
same,"Plant response rating, Poinsettia, Wild",wild poinsettia; 31 g ai/ha,0
same,"Plant response rating, Poinsettia, Wild",wild poinsettia; 62 g ai/ha,0
same,"Plant response rating, Poinsettia, Wild",wild poinsettia; 125 g ai/ha,0
same,"Plant response rating, Poinsettia, Wild",wild poinsettia; 250 g ai/ha,20
same,"Plant response rating, Arrowleaf Sida",arrowleaf sida; 16 g ai/ha,0
same,"Plant response rating, Arrowleaf Sida",arrowleaf sida; 31 g ai/ha,0
same,"Plant response rating, Arrowleaf Sida",arrowleaf sida; 62 g ai/ha,0
same,"Plant response rating, Arrowleaf Sida",arrowleaf sida; 125 g ai/ha,0
same,"Plant response rating, Arrowleaf Sida",arrowleaf sida; 250 g ai/ha,0
same,"Plant response rating, Crabgrass, Brazil","crabgrass, Brazil; 16 g ai/ha",85
same,"Plant response rating, Crabgrass, Brazil","crabgrass, Brazil; 31 g ai/ha",85
same,"Plant response rating, Crabgrass, Brazil","crabgrass, Brazil; 62 g ai/ha",95
same,"Plant response rating, Crabgrass, Brazil","crabgrass, Brazil; 125 g ai/ha",98
same,"Plant response rating, Crabgrass, Brazil","crabgrass, Brazil; 250 g ai/ha",98
